The values that follow come from the NIST ThermoML archive (doi:10.1016/j.jct.2005.07.006).

The conditions of series [1]: Crystal; DTA.
The nature of series [2]: Molar enthalpy of transition or fusion. Conditions: Crystal; DSC.

Numbers after ± are expanded uncertainties.

In the case of `N#Cc1nccnc1C#N` [2,3-pyrazinedicarbonitrile], the Triple point temperature in series [1] worked out at 405.06 ± 0.39 K. In addition, the “Molar enthalpy of transition or fusion” value in series [2] is 4.73 ± 0.179 kcal/mol.
